Reference: patent US8217029B2, “Oxazolidinone antibiotics” (Actelion Pharmaceuticals Ltd, priority 2007, dated 2012)
≈ marks a conversion by molar mass, not a printed value.

Each compound was assayed on S aureus A798 (assay: Minimal inhibitory concentration (MIC), microdilution method in cation-adjusted Mueller-Hinton Broth following NCCLS guidelines). Details: pH of test medium 7.2-7.3.
Format: cell-based
Experimental: These assays have been performed following the description given in “Methods for dilution Antimicrobial Susceptibility Tests for Bacteria that Grow Aerobically, 4th ed.; Approved standard: NCCLS Document M7-A4; National Committee for Clinical Laboratory Standards Villanova, Pa., USA, 1997”. Minimal inhibitory concentrations (MICs; mg/l) were determined in cation-adjusted Mueller-Hinton Broth by a microdilution method following NCCLS guidelines (National Committee for Clinical Laboratory Standards. Methods for Dilution Antimicrobial Susceptibility). The pH of the test medium was 7.2-7.3. All Example compounds were tested against several Gram positive and Gram negative bacteria.

Compound | MIC [µg/mL] | MIC S aureus A798
COc1ccc2cccc(N3CC(NC[C@@H]4CN(c5ccc6c(c5)NC(=O)CS6)C(=O)O4)C3)c2n1 [Example 158, 6-((R)-5-{[1-(2-Methoxy-quinolin-8-yl)-azetidin-3-ylamino]-methyl}-2-oxo-oxazolidin-3-yl)-4H-benzo[1,4]thiazin-3-one] | ≤ 0.031 | 
COc1ccc2nccc(N3C[C@H](NC[C@@H]4CN(c5ccc6c(c5)NC(=O)CS6)C(=O)O4)C[C@H]3CO)c2n1 [Example 79, 6-((R)-5-{[(3R,5S)-5-Hydroxymethyl-1-(6-methoxy-[1,5]naphthyridin-4-yl)-pyrrolidin-3-ylamino]-methyl}-2-oxo-oxazolidin-3-yl)-4H-benzo[1,4]thiazin-3-one] | 0.25 (≈ 0.466 µM) | 
COc1ccc2ncc(F)c(N3CC(NC[C@@H]4CN(c5ccc6c(c5)NC(=O)CS6)C(=O)O4)C3)c2n1 [Example 48, 6-((R)-5-{[1-(3-Fluoro-6-methoxy-[1,5]naphthyridin-4-yl)-azetidin-3-ylamino]-methyl}-2-oxo-oxazolidin-3-yl)-4H-benzo[1,4]thiazin-3-one] | ≤ 0.031 | 
COc1ccc2ncc(F)c(C3(O)CCN(C[C@@H]4CN(c5ccc6c(c5)NC(=O)CS6)C(=O)O4)CC3)c2n1 [Example 126, 6-{(R)-5-[4-(3-Fluoro-6-methoxy-[1,5]naphthyridin-4-yl)-4-hydroxy-piperidin-1-ylmethyl]-2-oxo-oxazolidin-3-yl}-4H-benzo[1,4]thiazin-3-one] | ≤ 0.031 | 
CCOc1ccc(N2C[C@@H](CN[C@H]3CCN(c4c(F)cnc5ccc(OC)nc45)C3)OC2=O)cc1 [Example 170, (R)-3-(4-Ethoxy-phenyl)-5-{[(S)-1-(3-fluoro-6-methoxy-[1,5]naphthyridin-4-yl)-pyrrolidin-3-ylamino]-methyl}-oxazolidin-2-one] | 0.25 (≈ 0.519 µM) | 
N#Cc1ccc2nccc(N3CC(NC[C@@H]4CN(c5ccc6c(c5)NC(=O)CS6)C(=O)O4)C3)c2c1 [Example 161, 4-(3-{[(R)-2-oxo-3-(3-oxo-3,4-dihydro-2H-benzo[1,4]thiazin-6-yl)-oxazolidin-5-ylmethyl]amino}-azetidin-1-yl)-quinoline-6-carbonitrile] | ≤ 0.031 | 
COc1ccc2nc(C)cc(N3CC(NC[C@@H]4CN(c5ccc6c(c5)NC(=O)CS6)C(=O)O4)C3)c2c1 [Example 131, 6-((R)-5-{[1-(6-Methoxy-2-methyl-quinolin-4-yl)-azetidin-3-ylamino]-methyl}-2-oxo-oxazolidin-3-yl)-4H-benzo[1,4]thiazin-3-one] | ≤ 0.031 | 
COc1ccc2ncc(F)c(N3CC(NC[C@@H]4CN(c5ccc6c(c5)OCCO6)C(=O)O4)C3)c2n1 [Example 47, (R)-3-(2,3-Dihydro-benzo[1,4]dioxin-6-yl)-5-{[1-(3-fluoro-6-methoxy-[1,5]naphthyridin-4-yl)-azetidin-3-ylamino]-methyl}-oxazolidin-2-one] | ≤ 0.031 | 
COc1ccc2ncc(F)c(N3CC[C@H](NC[C@@H]4CN(c5ccc6c(c5)NC(=O)CS6)C(=O)O4)C3)c2n1 [Example 65, 6-((R)-5-{[(S)-1-(3-Fluoro-6-methoxy-[1,5]naphthyridin-4-yl)-pyrrolidin-3-ylamino]-methyl}-2-oxo-oxazolidin-3-yl)-4H-benzo[1,4]thiazin-3-one] | ≤ 0.031 | 
N#Cc1ccc2nccc(N3CC[C@@H](NC[C@@H]4CN(c5ccc6c(c5)NC(=O)CS6)C(=O)O4)C3)c2c1 [Example 178, 4-((R)-3-{[(R)-2-oxo-3-(3-oxo-3,4-dihydro-2H-benzo[1,4]thiazin-6-yl)-oxazolidin-5-ylmethyl]-amino}-pyrrolidin-1-yl)-quinoline-6-carbonitrile] | 0.063 (≈ 0.126 µM) | 
COc1ccc2ncnc(N3CCN(CC4CN(c5ccc6c(c5)OCCO6)C(=O)O4)CC3)c2c1 (racemic) [Example 6, (RS)-3-(2,3-Dihydro-benzo[1,4]dioxin-6-yl)-5-[4-(6-methoxy-quinazolin-4-yl)-piperazin-1-ylmethyl]-oxazolidin-2-one] | ≤ 0.031 | 
COc1ccc2nccc(N3CC[C@@H]4CN(C(=O)[C@@H]5CN(c6ccc7c(c6)OCCO7)C(=O)O5)C[C@@H]43)c2n1 (mixture of isomers) [Example 92, (S)-3-(2,3-Dihydro-benzo[1,4]dioxin-6-yl)-5-[(3aR*,6aR*)-1-(6-methoxy-[1,5]naphthyridin-4-yl)-hexahydro-pyrrolo[3,4-b]pyrrole-5-carbonyl]-oxazolidin-2-one] | 0.25 | 

Continued, values first:

MIC [µg/mL] | MIC S aureus A798 | Compound
0.063 (≈ 0.14 µM) |  | COc1ccc2nccc(N3CCN(C[C@H]4CN(c5ccc(C)c(F)c5)C(=O)O4)CC3)c2n1 [Example 38, (S)-3-(3-Fluoro-4-methyl-phenyl)-5-[4-(6-methoxy-[1,5]naphthyridin-4-yl)-piperazin-1-ylmethyl]-oxazolidin-2-one]
≤ 0.031 |  | COc1ccc2nccc(N3CC(NCCC4CN(c5ccc6c(c5)NC(=O)CS6)C(=O)O4)C3)c2n1 (racemic) [Example 58, (RS)-6-(5-{2-[1-(6-Methoxy-[1,5]naphthyridin-4-yl)-azetidin-3-ylamino]-ethyl}-2-oxo-oxazolidin-3-yl)-4H-benzo[1,4]thiazin-3-one]
 | <=0.031 mg/l | COc1ccc2nccc(N3CC[C@@H]4CN(C[C@@H]5CN(c6ccc7c(c6)NC(=O)CS7)C(=O)O5)C[C@@H]43)c2n1 (relative stereo) [Example 91, 6-{{(R)-5-[(3aR*,6aR*)-1-(6-Methoxy-[1,5]naphthyridin-4-yl)-hexahydro-pyrrolo[3,4-b]pyrrol-5-yl]-methyl}-2-oxo-oxazolidin-3-yl}-4H-benzo[1,4]thiazin-3-one]
≤ 0.031 |  | CCc1ccc(N2C[C@@H](CN(C)C3CN(c4ccnc5ccc(OC)nc45)C3)OC2=O)cc1 [Example 137, (R)-3-(4-Ethyl-phenyl)-5-({[1-(6-methoxy-[1,5]naphthyridin-4-yl)-azetidin-3-yl]-methyl-amino}-methyl)-oxazolidin-2-one]
0.25 (≈ 0.571 µM) |  | COc1ccc2nccc(N3CCN(C[C@@H]4CN(c5ccc(F)cc5)C(=O)O4)CC3)c2n1 [Example 15, (R)-3-(4-Fluoro-phenyl)-5-[4-(6-methoxy-[1,5]naphthyridin-4-yl)-piperazin-1-ylmethyl]-oxazolidin-2-one]
0.125 (≈ 0.277 µM) |  | COc1ccc2nccc(N3CCN(C[C@@H]4CN(c5ccc(F)c(C)c5)C(=O)O4)CC3)c2n1 [Example 30, (R)-3-(4-Fluoro-3-methyl-phenyl)-5-[4-(6-methoxy-[1,5]naphthyridin-4-yl)-piperazin-1-ylmethyl]-oxazolidin-2-one]
≤ 0.031 |  | COc1ccc2nccc(N3CCN(C[C@@H]4CN(c5ccc(C)c(Br)c5)C(=O)O4)CC3)c2n1 [Example 32, (R)-3-(3-Bromo-4-methyl-phenyl)-5-[4-(6-methoxy-[1,5]naphthyridin-4-yl)-piperazin-1-ylmethyl]-oxazolidin-2-one]
≤ 0.031 |  | COc1ccc2nccc(N3C[C@H]4CCN(C[C@@H]5CN(c6ccc7c(c6)NC(=O)CS7)C(=O)O5)[C@H]4C3)c2n1 (mixture of isomers) [Example 93, 6-{(R)-5-{[(3aR*,6aR*)-5-(6-Methoxy-[1,5]naphthyridin-4-yl)-hexahydro-pyrrolo[3,4-b]pyrrol-1-yl]-methyl}-2-oxo-oxazolidin-3-yl}-4H-benzo[1,4]thiazin-3-one]
0.063 (≈ 0.135 µM) |  | COc1ccc2nccc(N3CC(CNCCC4CN(c5ccc(C)c(F)c5)C(=O)O4)C3)c2n1 (racemic) [Example 149, (RS)-3-(3-Fluoro-4-methyl-phenyl)-5-(2-{[1-(6-methoxy-[1,5]naphthyridin-4-yl)-azetidin-3-ylmethyl]-amino}-ethyl)-oxazolidin-2-one]
≤ 0.031 |  | COc1ccc2ncc(F)c(N3CCN(C[C@@H]4CN(c5ccc6c(c5)NC(=O)CO6)C(=O)O4)CC3)c2n1 [Example 97, 6-{(R)-5-[4-(3-Fluoro-6-methoxy-[1,5]naphthyridin-4-yl)-piperazin-1-ylmethyl]-2-oxo-oxazolidin-3-yl}-4H-benzo[1,4]oxazin-3-one]
≤ 0.031 |  | COc1ccc2nccc(N3CC(NC[C@@H]4CN(c5ccc(OC(F)F)cc5)C(=O)O4)C3)c2n1 [Example 176, (R)-3-(4-Difluoromethoxy-phenyl)-5-{[1-(6-methoxy-[1,5]naphthyridin-4-yl)-azetidin-3-ylamino]-methyl}-oxazolidin-2-one]
0.5 (≈ 1.07 µM) |  | COc1ccc2nccc(N3CC(C(=O)NC[C@@H]4CN(c5ccc(C)c(F)c5)C(=O)O4)C3)c2n1 [Example 148, 1-(6-Methoxy-[1,5]naphthyridin-4-yl)-azetidine-3-carboxylic acid [(R)-3-(3-fluoro-4-methyl-phenyl)-2-oxo-oxazolidin-5-ylmethyl]-amide]
≤ 0.031 |  | COc1ccc2nccc(N3CCN(C[C@@H]4CN(c5ccc6ncsc6c5)C(=O)O4)CC3)c2n1 [Example 19, (R)-3-Benzothiazol-6-yl-5-[4-(6-methoxy-[1,5]naphthyridin-4-yl)-piperazin-1-ylmethyl]-oxazolidin-2-one]
≤ 0.031 |  | COc1ccc2nccc(N3CCN(C[C@@H]4CN(c5ccc(C)c(C(F)(F)F)c5)C(=O)O4)CC3)c2n1 [Example 18, (R)-5-[4-(6-Methoxy-[1,5]naphthyridin-4-yl)-piperazin-1-ylmethyl]-3-(4-methyl-3-trifluoromethyl-phenyl)-oxazolidin-2-one]
≤ 0.031 |  | COc1ccc2nccc(N3CCN(C(=O)C[C@@H]4CN(c5ccc6c(c5)NC(=O)CS6)C(=O)O4)CC3)c2n1 [Example 114, 6-((R)-5-{2-[4-(6-Methoxy-[1,5]naphthyridin-4-yl)-piperazin-1-yl]-2-oxo-ethyl}-2-oxo-oxazolidin-3-yl)-4H-benzo[1,4]thiazin-3-one]
≤ 0.031 |  | COc1ccc2nccc(N3CC[C@H](N(C)C[C@@H]4CN(c5ccc6c(c5)OCCO6)C(=O)O4)C3)c2n1 [Example 112, (R)-3-(2,3-Dihydro-benzo[1,4]dioxin-6-yl)-5-({[(S)-1-(6-methoxy-[1,5]naphthyridin-4-yl)-pyrrolidin-3-yl]-methyl-amino}-methyl)-oxazolidin-2-one]
